Here are results for one substance from patent publication US20250145715A1, “B7-H3 TARGETING FUSION PROTEINS AND METHODS OF USE THEREOF” (GT Biopharma, Inc., priority 2021, published 2025).

One experiment concerns NK cells (CD56+CD3−). The experiment in a line: NK cell proliferation in PBMCs, CellTrace Violet dilution. Type of experiment: cell-based, human. The procedure:
FIGS. 2A-2H illustrates that cam1615B7-H3 TriKE induces potent, and specific, natural killer (NK) cell proliferation. Peripheral blood mononuclear cells (PBMCs) were CellTrace Violet labeled and incubated for seven days at 5 nM equimolar concentrations of rhIL-15 or cam1615B7-H3 TriKE. On day 7, the cells were harvested and stained for flow cytometric evaluation. […] FIG. 2B is a graph illustrating pooled data showing the overall proportion of NK cells that proliferated. FIG. 2C is a graph illustrating pooled data showing the proportion of NK cells that highly proliferated (measured as proliferation beyond three divisions). FIG. 2D is a graph illustrating pooled data showing NK cell counts in the cultures (N=9). FIG. 2E is a representative histogram showing T cell (CD56− CD3+) proliferation. FIG. 2F is a graph illustrating pooled data showing the overall proportion of T cells proliferated. FIG. 2G is a graph illustrating pooled data showing the proportion of T cells highly proliferated. […]
The wild-type IL-15 moiety in the cam1615B7-H3 TriKE was designed to induce targeted delivery of a proliferative signal to NK cells. […] At the end of the seven days, cells were harvested and proliferation was evaluated by gating on CD56+CD3− cells. […] Since IL-15 acts on both NK cells and T cells, specificity was evaluated next by gating on T cells (CD56-CD3+). […]

The subject of experiment [1] is PC3 prostate cancer cells. The experiment is described as follows: NK cell CD107a / IFNγ flow cytometry against PC3. The following applies: normal donor and prostate cancer patient NK cells, vs controls. Format: cell-based, human. From the text:
FIG. 15A is a graph showing pooled analysis of proportion of NK cells from healthy donors or prostate cancer patients expressing CD107a+ (top) or IFNγ (bottom) against C4-2 targets (N=9 for healthy donors, N=3 for patients). FIG. 15B is a graph showing pooled analysis of proportion of NK cells from healthy donors or prostate cancer patients expressing CD107a+ (top) or IFNγ (bottom) against DU145 targets (N=9 for healthy donors, N=3 for patients). FIG. 15C is a graph showing pooled analysis of proportion of NK cells from healthy donors or prostate cancer patients expressing CD107a+ (top) or IFNγ (bottom) against LNCaP targets (N=9 for healthy donors, N=3 for patients). FIG. 15D is a graph showing pooled analysis of proportion of NK cells from healthy donors or prostate cancer patients expressing CD107a+ (top) or IFNγ (bottom) against PC3 targets (N=9 for healthy donors, N=3 for patients). * p<0.05, ** p<0.01, *** p<0.001, and **** p<0.0001.
ADCC was measured in a flow cytometry assay by evaluating degranulation via CD107a (lysosomal-associated membrane protein LAMP-1) and intracellular IFNγ production. Upon thawing, normal donor and patient-derived PBMCs or ascites cells were rested overnight (37° C., 5% CO2) in RPMI 1640 media supplemented with 10% fetal calf serum (RPMI-10). […] Samples were washed and evaluated in an LSRII flow cytometer (BD Biosciences, San Jose, CA, USA). […]
A general note: In flow cytometry, cells or beads pass a laser one at a time.

On to “cam1615B7-H3: second-generation TriKE: humanized camelid anti-CD16 VHH, human wild-type IL-15, anti-B7-H3 mAb 376.96 scFv; SEQ ID NO:1”, for which the “overall NK cell proliferation” value in the experiment on NK cells (CD56+CD3−) (PBMCs, 7 days, 5 nM equimolar) is listed as “overall increase in proliferation that was similar in amplitude to that induced by rhIL-15”. Moreover, the “NK cell proliferation (3 or more rounds of division) vs IL-15 alone” value with NK cells (CD56+CD3−) (compared to IL-15 alone) is given as “more potent at inducing NK cell proliferation”. Also, in experiment [1], the “NK cell IFNγ production against PC3” value is given as “enhanced” and the “NK cell degranulation (CD107a) against PC3” value is reported as “enhanced”.
